Test results reported in ChEMBL document CHEMBL4725307, “Topical 'dual-soft' glucocorticoid receptor agonist for dermatology” (Bioorg Med Chem Lett, 2020).

How the values were obtained:
Glucocorticoid receptor = target: T1, Glucocorticoid receptor (Homo sapiens, UniProt P04150); test: Agonist activity at human glucocorticoid receptor in PBMC assessed as inhibition of LPS-induced TNFalpha release; type: tissue-based
T1 sequence (P04150 whole entry): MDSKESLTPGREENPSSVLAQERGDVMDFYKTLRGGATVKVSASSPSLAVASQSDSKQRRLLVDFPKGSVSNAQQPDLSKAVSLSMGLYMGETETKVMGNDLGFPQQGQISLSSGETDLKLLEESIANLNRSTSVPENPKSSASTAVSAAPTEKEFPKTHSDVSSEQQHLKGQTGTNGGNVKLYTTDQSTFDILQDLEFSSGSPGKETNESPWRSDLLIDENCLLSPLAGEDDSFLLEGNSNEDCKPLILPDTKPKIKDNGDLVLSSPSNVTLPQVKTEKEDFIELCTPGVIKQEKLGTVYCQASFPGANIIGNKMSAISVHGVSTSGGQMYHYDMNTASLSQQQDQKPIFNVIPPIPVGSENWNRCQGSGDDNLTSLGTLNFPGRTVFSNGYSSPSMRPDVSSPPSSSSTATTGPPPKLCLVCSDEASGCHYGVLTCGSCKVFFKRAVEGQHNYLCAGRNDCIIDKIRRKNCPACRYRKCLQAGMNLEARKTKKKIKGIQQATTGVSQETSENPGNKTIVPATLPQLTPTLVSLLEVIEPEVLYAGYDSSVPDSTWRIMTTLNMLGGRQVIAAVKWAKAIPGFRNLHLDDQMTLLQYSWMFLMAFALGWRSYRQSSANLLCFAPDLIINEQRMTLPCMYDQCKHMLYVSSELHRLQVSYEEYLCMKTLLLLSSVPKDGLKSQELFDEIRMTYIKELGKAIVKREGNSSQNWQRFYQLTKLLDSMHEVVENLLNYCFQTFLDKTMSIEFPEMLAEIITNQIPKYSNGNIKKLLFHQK

[1] = Half life in cultured human keratinocytes; type: ADME, cell-based, Keratinocyte
[2] = Half life in human whole blood; type: ADME, tissue-based
[3] = Drug metabolism in dog whole blood assessed as (3R)-3-(hydroxymethyl)-4-oxo-4-[(3S)-3-[[5-[(1R,2S)-1-(p-tolyl)-2-[(2,2,2-trifluoroacetyl)amino]propoxy]pyridine-2-carbonyl]amino]-1-piperidyl]butanoic acid metabolite formation; type: ADME, tissue-based, Canis lupus familiaris
[4] = Chemical stability assessed as parent compound remaining at pH 5.5 and 37 degreeC measured after 16 hrs; type: physicochemical; details: buffer, read-out: Stabilty
[5] = Drug metabolism in human hepatocytes assessed as (3R)-3-(hydroxymethyl)-4-oxo-4-[(3S)-3-[[5-[(1R,2S)-1-(p-tolyl)-2-[(2,2,2-trifluoroacetyl)amino]propoxy]pyridine-2-carbonyl]amino]-1-piperidyl]butanoic acid metabolite formation; type: ADME, cell-based, Hepatocyte
[6] = Drug metabolism in rat whole blood assessed as (3R)-3-(hydroxymethyl)-4-oxo-4-[(3S)-3-[[5-[(1R,2S)-1-(p-tolyl)-2-[(2,2,2-trifluoroacetyl)amino]propoxy]pyridine-2-carbonyl]amino]-1-piperidyl]butanoic acid metabolite formation; type: ADME, tissue-based
[7] = Drug metabolism in rat hepatocytes assessed as (3R)-3-(hydroxymethyl)-4-oxo-4-[(3S)-3-[[5-[(1R,2S)-1-(p-tolyl)-2-[(2,2,2-trifluoroacetyl)amino]propoxy]pyridine-2-carbonyl]amino]-1-piperidyl]butanoic acid metabolite formation; type: ADME, cell-based, Hepatocyte
[8] = Chemical stability assessed as parent compound remaining at pH 7 and 37 degreeC measured after 16 hrs; type: physicochemical; details: buffer, read-out: Stabilty
[9] = Drug metabolism in human whole blood assessed as (3R)-3-(hydroxymethyl)-4-oxo-4-[(3S)-3-[[5-[(1R,2S)-1-(p-tolyl)-2-[(2,2,2-trifluoroacetyl)amino]propoxy]pyridine-2-carbonyl]amino]-1-piperidyl]butanoic acid metabolite formation; type: ADME, tissue-based
[10] = Photostability of the compound; type: physicochemical
[11] = Drug metabolism in pig hepatocytes assessed as (3R)-3-(hydroxymethyl)-4-oxo-4-[(3S)-3-[[5-[(1R,2S)-1-(p-tolyl)-2-[(2,2,2-trifluoroacetyl)amino]propoxy]pyridine-2-carbonyl]amino]-1-piperidyl]butanoic acid metabolite formation; type: ADME, cell-based, Sus scrofa, Hepatocyte
[12] = Drug metabolism in dog hepatocytes assessed as (3R)-3-(hydroxymethyl)-4-oxo-4-[(3S)-3-[[5-[(1R,2S)-1-(p-tolyl)-2-[(2,2,2-trifluoroacetyl)amino]propoxy]pyridine-2-carbonyl]amino]-1-piperidyl]butanoic acid metabolite formation; type: ADME, cell-based, Canis lupus familiaris, Hepatocyte
[13] = Drug metabolism in pig whole blood assessed as (3R)-3-(hydroxymethyl)-4-oxo-4-[(3S)-3-[[5-[(1R,2S)-1-(p-tolyl)-2-[(2,2,2-trifluoroacetyl)amino]propoxy]pyridine-2-carbonyl]amino]-1-piperidyl]butanoic acid metabolite formation; type: ADME, tissue-based, Sus scrofa
[14] = target: T2, Glucocorticoid receptor (Homo sapiens) (UniProt P04150); test: Agonist activity at human glucocorticoid receptor assessed as inhibition of LPS-induced TNFalpha release in PBMC relative to control; type: tissue-based
T2 sequence (whole entry): T1 sequence (P04150 whole entry)

Homo sapiens [15] = species on record: Homo sapiens; test: Selectivity ratio for agonist activity at androgen receptor (unknown origin) to agonist activity at glucocorticoid receptor (unknown origin)
[16] = Hepatic clearance in iv dosed rat; type: ADME, organism-based; details: in vivo
Homo sapiens [17] = species on record: Homo sapiens; test: Selectivity ratio for agonist activity at progesterone receptor (unknown origin) to agonist activity at glucocorticoid receptor (unknown origin)
Homo sapiens [18] = species on record: Homo sapiens; test: Selectivity ratio for agonist activity at mineralocorticoid receptor (unknown origin) to agonist activity at glucocorticoid receptor (unknown origin)
Cytochrome P450 = test: Inhibition of CYP450 (unknown origin); type: protein assay; details: human
[19] = target: Voltage-gated inwardly rectifying potassium channel KCNH2 (Homo sapiens, UniProt Q12809); test: Inhibition of human ERG
Voltage-gated inwardly rectifying potassium channel KCNH2, sequence (Q12809 whole entry): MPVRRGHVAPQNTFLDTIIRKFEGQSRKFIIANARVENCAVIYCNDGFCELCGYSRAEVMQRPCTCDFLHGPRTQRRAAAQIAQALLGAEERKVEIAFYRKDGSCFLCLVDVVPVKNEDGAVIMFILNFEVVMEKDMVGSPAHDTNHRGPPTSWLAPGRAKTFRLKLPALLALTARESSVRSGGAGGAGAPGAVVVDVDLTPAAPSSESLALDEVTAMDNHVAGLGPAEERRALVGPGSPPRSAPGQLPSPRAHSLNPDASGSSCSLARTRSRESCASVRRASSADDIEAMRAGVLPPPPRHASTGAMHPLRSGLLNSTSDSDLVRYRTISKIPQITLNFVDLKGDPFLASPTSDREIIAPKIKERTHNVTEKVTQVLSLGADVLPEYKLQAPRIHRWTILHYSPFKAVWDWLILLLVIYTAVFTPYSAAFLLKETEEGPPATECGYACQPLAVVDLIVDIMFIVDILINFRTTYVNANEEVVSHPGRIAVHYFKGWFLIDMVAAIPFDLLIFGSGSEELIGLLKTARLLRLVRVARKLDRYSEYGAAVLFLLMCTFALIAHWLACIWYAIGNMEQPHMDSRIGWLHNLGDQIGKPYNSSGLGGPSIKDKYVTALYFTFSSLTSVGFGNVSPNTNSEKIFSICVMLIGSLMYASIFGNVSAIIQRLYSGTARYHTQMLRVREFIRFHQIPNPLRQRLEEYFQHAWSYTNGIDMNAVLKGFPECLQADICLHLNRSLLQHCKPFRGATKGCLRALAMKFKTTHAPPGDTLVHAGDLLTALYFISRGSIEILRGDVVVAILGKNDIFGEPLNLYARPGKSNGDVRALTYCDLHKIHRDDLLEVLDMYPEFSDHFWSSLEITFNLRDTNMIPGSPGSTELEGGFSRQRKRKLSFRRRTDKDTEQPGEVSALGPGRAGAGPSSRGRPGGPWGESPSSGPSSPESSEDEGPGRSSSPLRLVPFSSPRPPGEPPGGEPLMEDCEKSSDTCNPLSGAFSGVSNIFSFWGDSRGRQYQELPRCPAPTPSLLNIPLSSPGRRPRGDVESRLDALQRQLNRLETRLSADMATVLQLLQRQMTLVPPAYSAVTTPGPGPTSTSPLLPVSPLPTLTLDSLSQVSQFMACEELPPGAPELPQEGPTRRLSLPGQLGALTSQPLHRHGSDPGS

## C[C@H](NC(=O)[C@@H]1CCCO1)[C@H](Oc1ccc(C(=O)O[C@H]2CCCN(C(=O)[C@H]3COC(=O)C3)C2)cc1)c1ccc(C2CC2)cc1
Glucocorticoid receptor
  IC50: 22 nM

## Cc1ccc([C@@H](Oc2ccc(C(=O)N[C@H]3CCCN(C(=O)[C@@H]4COC(=O)C4)C3)nc2)[C@H](C)NC(=O)C(F)(F)F)cc1
[1]
  half-life: > 6 h
[2]
  half-life: 1.7 h

## Cc1ccc([C@@H](Oc2ccc(C(=O)N[C@@H]3CCCN(C(=O)[C@@H]4COC(=O)C4)C3)nc2)[C@H](C)NC(=O)C(F)(F)F)cc1
[2]
  half-life: 0.283 h

## Cc1ccc([C@@H](Oc2ccc(C(=O)Nc3ccccc3)nc2)[C@H](C)NC(=O)C(F)(F)F)cc1
Glucocorticoid receptor
  IC50: 26 nM

## C[C@H](NC(=O)C(F)(F)F)[C@H](Oc1ccc(C(=O)O[C@H]2CCCN(C(=O)[C@H]3COC(=O)C3)C2)cc1)c1ccc(C2CC2)cc1
Glucocorticoid receptor
  IC50: 1 nM

## Cc1ccc([C@@H](Oc2ccc3c(cnn3-c3ccc(F)cc3)c2)[C@H](C)NC(=O)C(F)(F)F)cc1
Glucocorticoid receptor
  IC50: 2 nM

## Cc1ccc([C@@H](Oc2ccc(C(=O)N[C@H]3CCCN(C(=O)[C@H]4COC(=O)C4)C3)nc2)[C@H](C)NC(=O)C(F)(F)F)cc1
[3]
  Drug metabolism: Metabolite_Detected
[1]
  half-life: > 6 h
[4]
  remaining at 16 h: > 95%
[5]
  Drug metabolism: Metabolite_Detected
[6]
  Drug metabolism: Metabolite_Detected
[7]
  Drug metabolism: Metabolite_Detected
[8]
  remaining at 16 h: 82%
[9]
  Drug metabolism: Metabolite_Detected
[10]
  Stabilty: Stable
[11]
  Drug metabolism: Metabolite_Detected
[2]
  half-life: < 0.167 h
[12]
  Drug metabolism: Metabolite_Detected
[13]
  Drug metabolism: Metabolite_Detected

## C[C@H](NC(=O)[C@H]1CCCO1)[C@H](Oc1ccc(C(=O)O[C@H]2CCCN(C(=O)[C@@H](CO)CC(=O)O)C2)cc1)c1ccc(C2CC2)cc1
[14]
  fold change (FC): > 100

## Cc1ccc([C@@H](Oc2ccc(C(=O)N[C@H]3CCCN(C(=O)[C@H]4COC(=O)C4)C3)cc2)[C@H](C)NC(=O)C(F)(F)F)cc1
Glucocorticoid receptor
  IC50: 79 nM

## Cc1ccc([C@@H](Oc2ccc(C(=O)N[C@H]3CCCN(C(=O)[C@@H]4CCC(=O)O4)C3)nc2)[C@H](C)NC(=O)C(F)(F)F)cc1
[2]
  half-life: 1.38 h

## Cc1ccc([C@@H](Oc2ccc(C(=O)N[C@@H]3CCCN(C(=O)[C@H]4COC(=O)C4)C3)nc2)[C@H](C)NC(=O)C(F)(F)F)cc1
[1]
  half-life: > 6 h
[2]
  half-life: < 0.167 h

## Cc1ccc([C@@H](Oc2ccc(C(=O)N[C@H]3CCCN(C(=O)[C@H]4CCC(=O)O4)C3)nc2)[C@H](C)NC(=O)C(F)(F)F)cc1
[1]
  half-life: > 6 h
[2]
  half-life: > 2 h

## C[C@H](NC(=O)[C@H]1CCCO1)[C@H](Oc1ccc(C(=O)O[C@H]2CCCN(C(=O)[C@H]3COC(=O)C3)C2)cc1)c1ccc(C2CC2)cc1
Homo sapiens [15]
  Selectivity ratio: > 100
[16]
  CLH: 500 mL/min/kg
Homo sapiens [17]
  Selectivity ratio: > 100
Homo sapiens [18]
  Selectivity ratio: > 100
Cytochrome P450
  inhibition (INH): Not Active
[19]
  inhibition (INH): Not Active
Glucocorticoid receptor
  IC50: 2 nM

## Cc1ccc([C@@H](Oc2ccc(C(=O)N[C@@H]3CCCN(C(=O)[C@H]4CCC(=O)O4)C3)nc2)[C@H](C)NC(=O)C(F)(F)F)cc1
[2]
  half-life: 0.85 h

## Cc1ccc([C@@H](Oc2ccc(C(=O)N[C@@H]3CCCN(C(=O)[C@@H]4CCC(=O)O4)C3)nc2)[C@H](C)NC(=O)C(F)(F)F)cc1
[2]
  half-life: 0.733 h
